From patent US9890192B2, “Targeted nitroxide agents” (University of Pittsburgh—of the Commonwealth System of …, priority 2008, dated 2018)
Entries after “also recorded” stand apart in the source; their conditions may differ. Values belong to the compound of their own block, whether it stands above or below them. Where a SMILES comes first, the peptide text is derived from it. [ ]: non-standard residue; d: D form. The star is where a group is joined. ξ: configuration not given here. NH(TEMPO-4-yl) = CC1(C)CC(N*)CC(C)(C)N1[O]; Orn = NCCC[C@H](N)C(=O)O; Cbz = O=C(OCc1ccccc1)*; Boc = CC(C)(C)OC(=O)*; ξOrn = NCCCC(N)C(=O)O; X1 = CC1CCN=C(N*)S1

Legend:
[1] = system: mouse embryonic cells (MEC); assay: EPR-based analysis of integration and reduction of nitroxide Gramicidin S-peptidyl conjugates in MECs; type: cell-based; conditions: 10 μM, whole cells, cytosol fractions
Method: Electron paramagnetic resonance (“EPR”) spectroscopy was used to monitor the cellular delivery of compounds 5a and 5b shown in FIG. 3 in mouse embryonic cells (“MEC”).
The following conditions were used during the EPR-based analysis of the integration and reduction of nitroxide Gramicidin S-peptidyl conjugates in MECs. The MECs at a concentration of 10 million MECs per mL were incubated with 10 μM of 4-AT and compound 5a, respectively. Recovered nitroxide radicals in whole cells, mitochondria, and cytosol fractions were resuspended in phosphate buffer saline (“PBS”) in the presence and absence, respectively, of 2 μM K3Fe(CN)6.

MECs [2] = assay: Intracellular superoxide generation (DHE flow cytometry) in ActD-treated MECs; type: cell-based, mouse; conditions: 10 μM pretreatment; ActD 100 ng/mL
Method: Determination of intracellular superoxide radicals. Oxidation-dependent fluorogenic dye, dihydroethidium (“DHE”, Molecular Probes) was used to evaluate intracellular production of superoxide radicals. DHE is cell permeable and, in the presence of superoxide, is oxidized to fluorescent ethidium which intercalates into DNA. The fluorescence of ethidium was measured using a FACscan (Becton-Dickinson, Rutherford, N.J.) flow cytometer, equipped with a 488-nm argon ion laser and supplied with the Cell Quest software. Mean fluorescence intensity from 10,000 cells were acquired using a 585-nm bandpass filter (FL-2 channel).

[3] = system: mitochondria of 32D c 13 hemopoietic cells; assay: Mass spectrometry of compounds in mitochondria isolated from 32D cl 3 cells; type: cell-based, murine; conditions: 100 μM; two hours at 37° C.
Method: An unconjugated and conjugated NOS antagonist, (AMT, 100 μM) and an unconjugated and conjugated nitroxide derivative (4-amino-TEMPO, 100 μM) were incubated for two hours at 37° C. with 32D c 13 hemopoietic cells.
Following incubation, the cells were lysed and the mitochondria isolated for a mass spectrometry analysis where compounds isolated from mitochondria were identified as Na+ adducts. […] Thus, the targeting peptides successfully direct a NOS antagonist and a nitroxide to the mitochondria.

[4] = system: irradiated uroepithelial cells; assay: NO and peroxynitrite production in irradiated uroepithelial cells; type: cell-based; conditions: 4-amino-TEMPO 100 μM, AMT 10 μM; capsaicin evoked; 24 hours after irradiation
Method: Further physiological studies were conducted to determine the effects of peptide-targeted AMT and 4-amino-TEMPO on NO and peroxynitrite production in irradiated uroepithelial cells. The cells were cultured in an 8-well slide chamber for 3 days and then microsensor measurements were taken 24 hours after irradiation.
In cells treated with high-dose conjugated 4-amin-TEMPO (100 μM), peroxynitrite production was decreased by approximately 4-fold.

MECs [5] = assay: ActD-induced apoptosis in MECs (annexin V, caspase-3, DNA fragmentation); conditions: for DNA fragmentation / caspase-3 activation / number of annexin V-positive cells (PS externalization): 10 μM, ActD 100 ng/mL
Method: The ability of 5a, 5b, and 4-AT to protect cells against apoptosis triggered by actinomycin D (“ActD”) was also tested. MECs were pretreated with 10 μM 4-AT, 5a, or 5b then incubated with ActD at a concentration of 100 ng/mL.
Externalization of PS was analyzed by flow cytometry using an annexin V kit. Cells were harvested by trypsinization at the end of incubation and then stained with annexin V-FITC and propidium iodide (“PS”). Ten thousand cell events were collected on a FACScan flow cytometer. Annexin V-positive and PI-negative cells were considered apoptotic.
Activation of capase-3, a cysteine protease only activated in the execution phase of apoptosis, was determined using an EnzChek capsase-3 assay kit.
These DNA fragments are eluted, stained with propidium iodide and analyzed using flow cytometry. A cell population with decreased DNA content was considered a fraction of apoptotic cells.

[6] = system: 32D cl 3 mouse hematopoietic progenitor cell line; assay: Irradiation survival curves of 32D cl 3 cells with JP4-039; type: cell-based; conditions: 10 μM
Method: Irradiation survival curves were performed on cells from the 32D cl 3 mouse hematopoietic progenitor cell line, incubated in 10 μM JP4-039 for 1 hour before irradiation, or plated in methylcellulose containing 10 μM […] after irradiation. Cells were irradiated from 0 to 8 Gy, plated in 0.8% methylcellulose containing media, and incubated for 7 days at 37° C. Colonies of greater than 50 cells were counted and data analyzed by linear quadratic and single-hit, multi-target models.

[7] = system: KM101 human marrow stromal cells; assay: Irradiation survival of KM101 cells with JP4-039; type: cell-based; conditions: 10 μM
Method: KM101 cells were incubated in media alone or in JP4-039 (10 μM) for one hour before irradiation or 24 hours after irradiation. The cells were irradiated to doses ranging from 0 to 6 Gy and plated in 4 well plates. Seven days later the cells were stained with crystal violet and colonies of greater than 50 cells counted. Cells incubated in JP4-039 either before or after irradiation were more radioresistant as shown by an increased shoulder of n=2.3±0.2 or 2.2±0.2, respectively compared to n of 1.1±0.1 for the KM101 cells (p=0.0309 or 0.0386, respectively).

[8] = system: mice exposed to total body irradiation; assay: Survival of mice after total body irradiation; type: in vivo, mouse
Method: In FIG. 17A, mice received intraperitoneal injection of 10 mg per kilogram of each of the chemicals indicated in FIG. 5, then 24 hours later received 9.75 Gy total body irradiation according to published methods. Mice were followed for survival according to IACUC regulations. […] (P=0.0008). In FIG. 17B, mice received intraperitoneal injection of JP4-039 either 10 minutes before (square symbols) or 4 hours after (triangle symbols) irradiation with 9.75 Gy.
Groups of 15 mice received intraperitoneal injection of 10 mg. per kilogram of each indicated GS-nitroxide compound or carrier (Cremphora plus alcohol at 1 to 1 ratio, then diluted 1 to 10 in distilled water). Mice received 10 mg per kilogram intra-peritoneal injection 24 hours prior to total body irradiation. Control mice received radiation alone. […] (P=0.0005)

[9] = system: MEF cells prepared from Ercc1−/− mouse embryos; assay: Toxicity of JP4-039 in Ercc1−/− MEF cultures; type: cell-based; conditions: 48 hours
Method: (§1) To assess the therapeutic potential of JP4-039, tests for safety and protective activity were performed. FIGS. 35 and 36 show the results of tests to evaluate whether varying concentrations of JP4-039 produce toxic effects after 48 hours in cultures of MEF cells prepared from Ercc1^−/− or wild-type mouse embryos, respectively.

[10] = system: MEF cells prepared from wild-type mouse embryos; assay: Toxicity of JP4-039 in wild-type MEF cultures; type: cell-based; conditions: up to 10 μM, 48 hours
Method: as §1

[11] = system: p16 in primary MEFs from Ercc1−/− mouse embryos; assay: p16 immunofluorescence in Ercc1−/− MEFs under 20% oxygen; type: cell-based; conditions: 1 uM, 48 hrs
Method: To test the protective activity of JP4-039, cultures of primary MEFs were prepared from Ercc1^−/− mouse embryos and grown under 20% oxygen (ambient air), which creates oxidative stress in these cells that are hypersensitive to reactive oxygen species. The cells were then either treated with a concentration of 1 uM XJB-5-131, JP4-039, JED-E71-37 or JED-E71-58, or left untreated (media), and then after 48 hrs the level of p16, a marker of irreversible cellular senescence, was measured by immunofluorescence staining.

[12] = system: γ-H2AX in primary MEF cells from Ercc1−/− mice; assay: γ-H2AX immunostaining in Ercc1−/− MEFs under oxidative stress; type: cell-based, mouse; conditions: 1 μM, 48 hours
Method: Next, the abilities of these two agents, as well as XJB-5-131 and JP4-039, each at a concentration of 1 μM, were tested for their ability to prevent oxidation-induced DNA double-strand breaks in cell cultures prepared, and oxidatively stressed, as in the preceding paragraph. Treated as well as untreated cells were, after 48 hours of treatment, immunostained for γ-H2AX, a marker of DNA double-strand breaks as well as cellular senescence.

mitochondrial membrane = assay: Quantitative mass spectrometry of AMT peptide conjugates permeating the mitochondrial membrane; type: cell-based; conditions: relative quantification of conjugate at the target site
Method: Quantitative mass spectrometry studies were used to compare the effectiveness of several AMT peptide conjugates in permeating the mitochondrial membrane, specifically XJB-5-234, XJB-5-133, XJB-5-241, and XJB-5-127. The fmole/10 μM mitochondrial protein ratio provides a relative quantification of conjugate concentration at the target site.

Compound: CC1(C)CC(N)CC(C)(C)N1[O] [4-amino-TEMPO, reference compound]
EPR signals of nitroxide radicals; integration into cells and mitochondria [1]: did not effectively permeate cells or the mitochondria
intracellular superoxide generation (MECs [2]): had no effect
permeation of the mitochondrial membrane (MS, Na+ adducts) [3]: only permeate the mitochondrial membrane with the assistance of the attached GS-derived targeting sequence
peroxynitrite formation [4]: comparable amount of peroxynitrite
protection against ActD-induced apoptosis (MECs [5]; 10 μM / low concentrations): afforded no protection

Compound: CC(C)C[C@@H](/C=C/[C@H](Cc1ccccc1)C(=O)N1CCC[C@H]1C(=O)N[C@H](C(=O)N[C@@H](CCCNC(=O)OCc1ccccc1)C(=O)NC1CC(C)(C)N([O])C(C)(C)C1)C(C)C)NC(=O)OC(C)(C)C [5a]
intracellular superoxide generation (MECs [2]): completely inhibited
DNA fragmentation (MECs [5]): prevented DNA fragmentation
caspase-3 activation (MECs [5]): prevented caspase-3 activation
number of annexin V-positive cells (PS externalization) (MECs [5]): reduced the number of annexin V•positive cells

Compound: CC(C)C[C@H](NC(=O)OC(C)(C)C)C(=O)N[C@H](Cc1ccccc1)C(=O)N1CCC[C@H]1C(=O)N[C@H](C(=O)N[C@@H](CCCNC(=O)OCc1ccccc1)C(=O)NC1CC(C)(C)N([O])C(C)(C)C1)C(C)C [5b] (Boc-L[dF]PV[Orn](Cbz)-{NH(TEMPO-4-yl)})
intracellular superoxide generation (MECs [2]): completely inhibited
DNA fragmentation (MECs [5]): prevented DNA fragmentation
caspase-3 activation (MECs [5]): prevented caspase-3 activation
number of annexin V-positive cells (PS externalization) (MECs [5]): reduced the number of annexin V•positive cells
protection or cytotoxicity at higher concentration (MECs [5]; concentrations in excess of 10 μM): either less protective or exhibited cytotoxicity

Compound: CC1CCN=C(N)S1 (stereo not drawn) [AMT, 2-amino-6-methyl-thiazine]
permeation of the mitochondrial membrane (MS, Na+ adducts) [3]: do not enter the mitochondria membrane in substantial quantities
peroxynitrite formation [4]: comparable amount of peroxynitrite

Compound: CC(C)C[C@@H](/C=C/CC(=O)NC1CC(C)(C)N([O])C(C)(C)C1)NC(=O)OC(C)(C)C [JP4-039, TEMPO-4-yl-(S,E)-5-(tert-butoxycarbonylamino)-7-methyloct-3-enamide]
hematopoietic cell radiation mitigation [6]: effective hematopoietic cell radiation mitigator
mitigation of irradiation damage [7]: effective mitigator
change in the Do ([7]; before or after irradiation): no significant change
survival of mice ([8]; 9.5 Gy total body irradiation, 10 mg per kilogram intraperitoneal 24 hours prior): increases survival
survival of mice ([8]; 9.75 Gy total body irradiation, 10 mg per kilogram intraperitoneal): significant increase in survival; also recorded: increases survival
cellular proliferation relative to untreated control cells ([9]; Ercc1−/− or wild-type MEF): enhanced
toxicity ([9]; up to 10 μM): no signs of toxicity were observed
toxicity [10]: no signs of toxicity were observed
level of p16 [11]: much lower
γ-H2AX (oxidation-induced DNA double-strand breaks) [12]: also effective

fmole/10 μM mitochondrial protein (mitochondrial membrane): 50.8 fmole/10 μM mitochondrial protein
Compound: CC(C)C[C@H](NC(=O)OC(C)(C)C)C(=O)N[C@H](Cc1ccccc1)C(=O)N1CCC[C@H]1C(=O)N[C@H](C(=O)NC(CCCNC(=O)OCc1ccccc1)C(=O)NC1=NCCC(C)S1)C(C)C (stereo partly drawn) [XJB-5-127, Boc-Leu-^DPhe-Pro-Val-Orn(Cbz)-AMT] (Boc-L[dF]PV[ξOrn](Cbz)-X1)

fmole/10 μM mitochondrial protein (mitochondrial membrane): 89.8 fmole/10 μM mitochondrial protein
Compound: CC(C)C[C@@H](/C=C/[C@H](Cc1ccccc1)C(=O)N1CCC[C@H]1C(=O)N[C@H](C(=O)N[C@@H](CCCNC(=O)OCc1ccccc1)C(=O)NC1=NCCC(C)S1)C(C)C)NC(=O)OC(C)(C)C (stereo partly drawn) [XJB-5-133, Boc-leu-ψ[(E)-CH═CH]-^DPhe-Pro-Val-Orn(Cbz)-AMT]

fmole/10 μM mitochondrial protein (mitochondrial membrane): 1.45 fmole/10 μM mitochondrial protein
Compound: CC(C)C[C@@H](/C=C/[C@H](Cc1ccccc1)C(=O)NC1=NCCC(C)S1)NC(=O)OC(C)(C)C (stereo partly drawn) [XJB-5-234, Boc-Leu-[ψ(E)-CH═CH]-^DPhe-AMT]

fmole/10 μM mitochondrial protein (mitochondrial membrane): 103.3 fmole/10 μM mitochondrial protein
Compound: C/C(=C\[C@H](Cc1ccccc1)C(=O)N1CCC[C@H]1C(=O)N[C@H](C(=O)NC(CCCNC(=O)OCc1ccccc1)C(=O)NC1=NCCC(C)S1)C(C)C)[C@H](CC(C)C)NC(=O)OC(C)(C)C (stereo partly drawn) [XJB-5-241, Boc-Leu-ψ[(E)-C(CH3)═CH]-^DPhe-Pro-Val-Orn(Cbz)-AMT]
